Assay: xn = mol fraction of the nth substance listed
Settings: 101 kPa, Liquid; for viscosity: Capillary tube (Ostwald / Ubbelohde) method; for mass density: Vibrating tube method

NCCCO [3-amino-1-propanol] + CCO
Settings | mass density, 293.15 K [kg/m3] | mass density, 303.15 K [kg/m3] | mass density, 313.15 K [kg/m3] | mass density, 323.15 K [kg/m3] | viscosity, 293.15 K [mPa·s] | viscosity, 303.15 K [mPa·s] | viscosity, 313.15 K [mPa·s] | viscosity, 323.15 K [mPa·s]
x1 = 0.101 | 820.04 | 812.33 | 802.78 | 795.11 | 1.77 | 1.41 | 1.18 | 0.97
x1 = 0.2008 | 847.98 | 839.91 | 830.23 | 822.21 | 2.7 | 2.05 | 1.63 | 1.32
x1 = 0.3001 | 871.99 | 863.77 | 854.17 | 846.08 | 4.06 | 2.97 | 2.29 | 1.79
x1 = 0.4006 | 894.28 | 885.95 | 876.32 | 867.97 | 6.22 | 4.43 | 3.25 | 2.49
x1 = 0.4999 | 914.13 | 905.74 | 896.28 | 887.91 | 9.34 | 6.31 | 4.53 | 3.33
x1 = 0.5994 | 932.46 | 923.63 | 914.45 | 906.05 | 13.88 | 8.89 | 6.17 | 4.35
x1 = 0.6993 | 948.72 | 940.08 | 931.32 | 922.79 | 19.55 | 12.09 | 8.08 | 5.52
x1 = 0.7999 | 963.35 | 954.73 | 946.49 | 938.29 | 26.29 | 15.91 | 10.18 | 6.82
x1 = 0.8998 | 975.98 | 967.76 | 959.83 | 951.35 | 32.9 | 19.96 | 12.86 | 8.29

NCCNCCN [di(2-aminoethyl)amine] + CCO
Settings | mass density, 293.15 K [kg/m3] | mass density, 303.15 K [kg/m3] | mass density, 313.15 K [kg/m3] | mass density, 323.15 K [kg/m3] | viscosity, 293.15 K [mPa·s] | viscosity, 303.15 K [mPa·s] | viscosity, 313.15 K [mPa·s] | viscosity, 323.15 K [mPa·s]
x1 = 0.1 | 831.18 | 820.88 | 809.43 | 800.56 | 2.38 | 1.82 | 1.43 | 1.16
x1 = 0.1999 | 864.18 | 852.13 | 839.06 | 828.38 | 3.4 | 2.52 | 1.95 | 1.54
x1 = 0.3001 | 888.74 | 875.32 | 862.26 | 849.95 | 4.31 | 3.11 | 2.33 | 1.81
x1 = 0.4 | 905.98 | 892.48 | 879.84 | 866.96 | 5.06 | 3.57 | 2.64 | 2.03
x1 = 0.4998 | 918.77 | 905.55 | 893.25 | 881.28 | 5.59 | 3.93 | 2.89 | 2.2
x1 = 0.6001 | 928.75 | 915.84 | 904.57 | 892.92 | 6.05 | 4.19 | 3.06 | 2.31
x1 = 0.6992 | 936.55 | 924.86 | 913.73 | 903.03 | 6.39 | 4.38 | 3.15 | 2.37
x1 = 0.7998 | 943.08 | 931.95 | 921.49 | 911.41 | 6.61 | 4.53 | 3.26 | 2.45
x1 = 0.9007 | 948.15 | 937.76 | 928.32 | 918.94 | 6.8 | 4.65 | 3.31 | 2.5

NCCNCCO [N-(2-aminoethyl)ethanolamine] + CCO
Settings | mass density, 293.15 K [kg/m3] | mass density, 303.15 K [kg/m3] | mass density, 313.15 K [kg/m3] | mass density, 323.15 K [kg/m3] | viscosity, 293.15 K [mPa·s] | viscosity, 303.15 K [mPa·s] | viscosity, 313.15 K [mPa·s] | viscosity, 323.15 K [mPa·s]
x1 = 0.1003 | 836.01 | 827.72 | 817.72 | 810.06 | 2.27 | 1.78 | 1.41 | 1.13
x1 = 0.2 | 876.03 | 866.47 | 856.04 | 847.84 | 4.21 | 3.09 | 2.35 | 1.79
x1 = 0.3 | 908.63 | 898.53 | 888.11 | 880.03 | 8.22 | 5.37 | 3.76 | 2.74
x1 = 0.4 | 935.65 | 925.07 | 915.04 | 906.65 | 14.62 | 9.08 | 6.08 | 4.22
x1 = 0.4997 | 957.92 | 947.38 | 937.71 | 929.72 | 24.18 | 14.41 | 9.37 | 6.19
x1 = 0.5996 | 976.58 | 966.68 | 957.44 | 949.14 | 36.92 | 21.51 | 13.45 | 8.75
x1 = 0.6992 | 992.84 | 983.3 | 974.42 | 966.36 | 55.46 | 31.16 | 18.74 | 11.65
x1 = 0.7994 | 1007.09 | 997.81 | 989.49 | 981.48 | 78.97 | 42.47 | 24.16 | 14.94
x1 = 0.9007 | 1019.25 | 1010.53 | 1002.88 | 995.08 | 107.09 | 56.14 | 31.76 | 18.8

CC(O)CN (stereo not drawn) [1-amino-2-propanol] + CCO
Settings | mass density, 293.15 K [kg/m3] | mass density, 303.15 K [kg/m3] | mass density, 313.15 K [kg/m3] | mass density, 323.15 K [kg/m3] | viscosity, 293.15 K [mPa·s] | viscosity, 303.15 K [mPa·s] | viscosity, 313.15 K [mPa·s] | viscosity, 323.15 K [mPa·s]
x1 = 0.1009 | 815.54 | 807.78 | 798.04 | 790.57 | 1.69 | 1.35 | 1.1 | 0.9
x1 = 0.2 | 839.35 | 830.91 | 821.03 | 813.16 | 2.38 | 1.83 | 1.45 | 1.16
x1 = 0.3015 | 860.99 | 852.05 | 842.37 | 834.09 | 3.39 | 2.51 | 1.91 | 1.49
x1 = 0.3999 | 879.64 | 870.63 | 860.91 | 852.56 | 4.74 | 3.38 | 2.49 | 1.89
x1 = 0.4999 | 896.77 | 887.58 | 878.08 | 869.65 | 6.61 | 4.53 | 3.23 | 2.39
x1 = 0.5992 | 912.21 | 903.08 | 893.58 | 885.11 | 9.15 | 6.04 | 4.17 | 3.01
x1 = 0.6996 | 926.22 | 917.08 | 907.84 | 899.63 | 12.64 | 8.01 | 5.35 | 3.76
x1 = 0.7998 | 938.83 | 929.86 | 921.21 | 912.9 | 17.3 | 10.53 | 6.84 | 4.7
x1 = 0.8995 | 950.36 | 941.55 | 933.29 | 924.97 | 23.42 | 13.8 | 8.64 | 5.75
